Toxic doses and inconclusive results are not listed.
Tested on: B6C3F1 mice, ip Sarcoma M5076, median survival T/C
Assay: NCI In Vivo Anticancer Drug Screen. Data for tumor model Sarcoma M5076 (intraperitoneal) in B6C3F1 mice
Details: endpoint: median survival time, higher = longer survival
Protocol: The antitumor activity of compounds was measured in mice bearing transplantable tumors. Survival or tumor size were measured and the results are expressed as the measurement made in the treated group (T) divided by the measurement made in the vehicle treated control group (C). The tumor model used in this assay is Sarcoma M5076 (intraperitoneal) in B6C3F1 mice

[1] = dose: 50.0 mg/kg/injection, schedule: Q04DX004 (ip), vehicle: saline
[2] = dose: 50.0 mg/kg/injection, schedule: Q04DX004 (ip), vehicle: suspension in saline
[3] = dose: 100.0 mg/kg/injection, schedule: Q04DX004 (ip), vehicle: saline
[4] = dose: 200.0 mg/kg/injection, schedule: Q04DX004 (ip), vehicle: saline
[5] = dose: 200.0 mg/kg/injection, schedule: Q04DX004 (ip), vehicle: suspension in saline
[6] = dose: 37.5 mg/kg/injection, schedule: Q04DX004 (ip), vehicle: saline with Tween-80
[7] = dose: 75.0 mg/kg/injection, schedule: Q04DX004 (ip), vehicle: saline with Tween-80
[8] = dose: 150.0 mg/kg/injection, schedule: Q04DX004 (ip), vehicle: saline with Tween-80
[9] = dose: 300.0 mg/kg/injection, schedule: Q04DX004 (ip), vehicle: saline with Tween-80
[10] = dose: 400.0 mg/kg/injection, schedule: Q04DX004 (ip), vehicle: saline

C[C@@]12C(=O)OC(=O)[C@]1(C)[C@H]1CC[C@@H]2O1
T/C (dose: 125.0 micrograms/kg/injection, schedule: Q01DX009 (ip), vehicle: acetone): 100 % of control | T/C (dose: 250.0 micrograms/kg/injection, schedule: Q01DX009 (ip), vehicle: acetone): 115 % of control | T/C (dose: 500.0 micrograms/kg/injection, schedule: Q01DX009 (ip), vehicle: acetone): 116 % of control | T/C (dose: 1000.0 micrograms/kg/injection, schedule: Q01DX009 (ip), vehicle: acetone): 100 % of control

CNC(=O)OCc1nc(SC)n(C)c1COC(=O)NC
T/C (dose: 25.0 mg/kg/injection, schedule: Q04DX004 (ip), vehicle: saline): 122 % of control | T/C (dose: 25.0 mg/kg/injection, schedule: Q04DX004 (ip), vehicle: suspension in saline): 119 % of control | T/C [1]: 119 % of control | T/C [2]: 122 % of control | T/C [3]: 151 % of control | T/C [4]: 184 % of control | T/C [5]: 193 % of control

CCOC(=O)/C=C1\CCC(C)n2c1nccc2=O (stereo unspecified)
T/C [6]: 102 % of control | T/C [7]: 86 % of control | T/C [8]: 96 % of control | T/C [9]: 101 % of control | T/C (dose: 600.0 mg/kg/injection, schedule: Q04DX004 (ip), vehicle: saline with Tween-80): 106 % of control

CCCCNP1(NCCCC)=NP(NCCCC)(NCCCC)=NP(NCCCC)(NCCCC)=NP(NCCCC)(NCCCC)=N1
T/C (dose: 3.13 mg/kg/injection, schedule: Q04DX004 (ip), vehicle: saline with Tween-80): 96 % of control | T/C (dose: 6.25 mg/kg/injection, schedule: Q04DX004 (ip), vehicle: saline with Tween-80): 104 % of control | T/C (dose: 12.5 mg/kg/injection, schedule: Q04DX004 (ip), vehicle: saline with Tween-80): 102 % of control | T/C (dose: 25.0 mg/kg/injection, schedule: Q04DX004 (ip), vehicle: saline with Tween-80): 96 % of control | T/C (dose: 50.0 mg/kg/injection, schedule: Q04DX004 (ip), vehicle: saline with Tween-80): 97 % of control

N#CC1C(=O)NC(=O)C(C#N)C1c1ccncc1 (stereo unspecified)
T/C (dose: 50.0 mg/kg/injection, schedule: Q04DX004 (ip), vehicle: Klucel (hydroxypropylcellulose) (HPC)): 100 % of control | T/C (dose: 100.0 mg/kg/injection, schedule: Q04DX004 (ip), vehicle: Klucel (hydroxypropylcellulose) (HPC)): 110 % of control | T/C (dose: 200.0 mg/kg/injection, schedule: Q04DX004 (ip), vehicle: Klucel (hydroxypropylcellulose) (HPC)): 91 % of control | T/C (dose: 400.0 mg/kg/injection, schedule: Q04DX004 (ip), vehicle: Klucel (hydroxypropylcellulose) (HPC)): 104 % of control | T/C (dose: 800.0 mg/kg/injection, schedule: Q04DX004 (ip), vehicle: Klucel (hydroxypropylcellulose) (HPC)): 96 % of control

O=S1(=O)C(c2cccc(F)c2)=C(O)c2cc3ccccc3nc21
T/C (dose: 26.57 mg/kg/injection, schedule: Q04DX004 (ip), vehicle: saline with Tween-80): 100 % of control | T/C (dose: 53.13 mg/kg/injection, schedule: Q04DX004 (ip), vehicle: saline with Tween-80): 92 % of control | T/C (dose: 106.25 mg/kg/injection, schedule: Q04DX004 (ip), vehicle: saline with Tween-80): 96 % of control | T/C (dose: 212.5 mg/kg/injection, schedule: Q04DX004 (ip), vehicle: saline with Tween-80): 92 % of control

O=S(=O)(O)SCCNCCCCC1CCCCC1
T/C (dose: 3.75 mg/kg/injection, schedule: Q04DX004 (ip), vehicle: saline with Tween-80): 100 % of control | T/C (dose: 7.5 mg/kg/injection, schedule: Q04DX004 (ip), vehicle: saline with Tween-80): 99 % of control | T/C (dose: 15.0 mg/kg/injection, schedule: Q04DX004 (ip), vehicle: saline with Tween-80): 101 % of control

COc1ccc(-n2c(CSc3ccc(Cl)cc3)n[nH]c2=S)cc1
T/C [6]: 96 % of control | T/C [7]: 101 % of control | T/C [8]: 96 % of control | T/C [9]: 87 % of control

O=c1[nH]cnc2c1nnn2C1OC(CO)C(O)C1O (stereo unspecified)
T/C [1]: 105 % of control | T/C [2]: 97 % of control | T/C [3]: 93 % of control | T/C (dose: 100.0 mg/kg/injection, schedule: Q04DX004 (ip), vehicle: suspension in saline): 94 % of control | T/C [4]: 112 % of control | T/C [5]: 98 % of control | T/C [10]: 101 % of control | T/C (dose: 400.0 mg/kg/injection, schedule: Q04DX004 (ip), vehicle: suspension in saline): 96 % of control | T/C (dose: 800.0 mg/kg/injection, schedule: Q04DX004 (ip), vehicle: saline): 103 % of control | T/C (dose: 800.0 mg/kg/injection, schedule: Q04DX004 (ip), vehicle: suspension in saline): 96 % of control

CN(CN1C(=O)CCC1=O)CN1C(=O)CCC1=O
T/C [1]: 92 % of control | T/C [3]: 100 % of control | T/C [4]: 96 % of control | T/C [10]: 116 % of control

Source: PubChem BioAssay AID292 (DTP/NCI, 2004)
